Assay results taken from US9765067B2, “Thiophen-2-yl-pyridin-2-yl-1H-pyrazole-4-carboxylic acid derivatives and the use thereof as soluble guanylate cyclase activators” (Novartis AG, priority 2014, dated 2017).

The compounds below were run against T1, soluble guanylate cyclase (human GUCYA3/GUCYB3) overexpressed in CHO cells (Homo sapiens, UniProt Q02108+Q02153) (assay: CHO cellular assay (cGMP production, HTRF)). Settings: CHO K1 clone 8E10 overexpressing human sGC, Cisbio HTRF, 1 h room temperature, 1 mM IBMX, 20 uM ODQ, minimum quantification limit 0.5 nM.
T1 construct: expressed in transfected cells
T1 sequence (Q02108 1-690 partner): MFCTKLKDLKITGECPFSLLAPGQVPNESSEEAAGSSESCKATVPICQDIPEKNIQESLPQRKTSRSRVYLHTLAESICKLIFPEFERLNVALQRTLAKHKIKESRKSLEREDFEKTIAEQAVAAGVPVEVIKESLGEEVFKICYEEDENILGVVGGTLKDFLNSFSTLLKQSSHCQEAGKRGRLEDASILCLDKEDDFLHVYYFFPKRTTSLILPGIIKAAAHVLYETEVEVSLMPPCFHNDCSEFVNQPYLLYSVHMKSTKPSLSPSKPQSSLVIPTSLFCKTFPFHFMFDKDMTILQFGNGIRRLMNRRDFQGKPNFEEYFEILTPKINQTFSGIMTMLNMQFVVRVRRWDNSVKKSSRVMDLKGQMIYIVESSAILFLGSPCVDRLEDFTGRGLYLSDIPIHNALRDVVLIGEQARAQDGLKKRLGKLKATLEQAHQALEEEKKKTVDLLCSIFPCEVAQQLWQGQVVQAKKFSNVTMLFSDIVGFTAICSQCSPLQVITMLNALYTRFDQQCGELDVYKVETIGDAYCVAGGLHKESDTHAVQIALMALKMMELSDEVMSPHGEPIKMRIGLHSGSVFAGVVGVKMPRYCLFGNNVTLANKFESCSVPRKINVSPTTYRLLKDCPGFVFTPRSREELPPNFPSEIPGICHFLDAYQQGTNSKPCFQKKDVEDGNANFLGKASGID
T1 sequence (Q02153 1-619): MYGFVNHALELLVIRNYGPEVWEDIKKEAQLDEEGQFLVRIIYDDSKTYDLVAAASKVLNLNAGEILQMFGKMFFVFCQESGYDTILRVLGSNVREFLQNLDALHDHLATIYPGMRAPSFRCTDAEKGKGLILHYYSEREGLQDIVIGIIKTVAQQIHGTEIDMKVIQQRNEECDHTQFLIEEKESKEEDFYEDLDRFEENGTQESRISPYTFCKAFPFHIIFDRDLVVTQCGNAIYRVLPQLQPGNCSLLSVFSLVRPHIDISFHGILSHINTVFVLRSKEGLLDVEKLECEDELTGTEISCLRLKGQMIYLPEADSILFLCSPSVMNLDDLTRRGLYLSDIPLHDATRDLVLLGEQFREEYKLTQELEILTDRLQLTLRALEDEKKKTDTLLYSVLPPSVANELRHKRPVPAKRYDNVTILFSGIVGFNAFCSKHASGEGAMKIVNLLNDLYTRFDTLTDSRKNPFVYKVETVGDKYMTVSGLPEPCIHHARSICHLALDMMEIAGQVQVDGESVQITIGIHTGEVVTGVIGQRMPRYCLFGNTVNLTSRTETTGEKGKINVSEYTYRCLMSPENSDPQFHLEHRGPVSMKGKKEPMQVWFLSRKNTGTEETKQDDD
Format: cell-based
From the text: Chinese hamster ovary (CHO) cells overexpressing soluble guanylate cyclase were generated to test the effect of sGC activators in a cellular context. Human cDNAs for GUCYA3 (RefSeq: NM_000856.3) and GUCYB3 (RefSeq: NM_000857.1) were amplified by PCR from a HUVEC (Human Umbilical Vein Endothelial Cells) cDNA library and cloned into mammalian expression vectors. CHO K1 cells (ATCC CCL-61) were transfected using Lipofectamine 2000 following manufacturer's instructions and stably expressing clones were identified by antibiotic selection. CHO GUCY clone 8E10 was used for subsequent experiments.
Cells were seeded at a density of 3000 cells/well in white 384-well proxyplates (Perkin Elmer) and incubated overnight, then the medium was removed and cells were washed with assay buffer (HBSS, 0.1% BSA, 1 mM IBMX, 20 uM ODQ). sGC activators were serially diluted in DMSO, then diluted in assay buffer prior to adding to cells (10 ul/well, final DMSO concentration 0.5%). Cells were incubated with compounds for 1 h room temperature, then assayed for cGMP production using Cisbio cGMP HTRF kit (62GM2PEC) according to manufacturer's instructions.
The EC50s are calculated based on the amount of cGMP interpolated from the standard curve, using a 4-parameter sigmoidal dose-response.

Compound | EC50
Cc1cc(C2CCN(C(=O)C3CC3)CC2)ccc1OCc1ccsc1-c1cccc(-n2ncc(C(=O)O)c2C(F)(F)F)c1 [Example 6-1, 1-(3-(3-((4-(1-(Cyclopropanecarbonyl)piperidin-4-yl)-2-methylphenoxy)methyl)thiophen-2-yl)phenyl)-5-(trifluoromethyl)-1H-pyrazole-4-carboxylic acid] | 1 nM
Cc1c(OCc2ccsc2-c2cccc(-n3ncc(C(=O)O)c3C(F)(F)F)n2)ccc(C2CCN(C(=O)C3CC3)CC2)c1C [Example 6-2, 1-(6-(3-((4-(1-(Cyclopropanecarbonyl)piperidin-4-yl)-2,3-dimethylphenoxy)methyl)thiophen-2-yl)pyridin-2-yl)-5-(trifluoromethyl)-1H-pyrazole-4-carboxylic acid] | 33 nM
Cc1cc(C2CCN(C(=O)C3CC3)CC2)ccc1OCc1cc(Cl)sc1-c1cccc(-n2ncc(C(=O)O)c2C(F)(F)F)n1 [Example 6-3, 1-(6-(5-Chloro-3-((4-(1-(cyclopropanecarbonyl)piperidin-4-yl)-2-methylphenoxy)methyl)thiophen-2-yl)pyridin-2-yl)-5-(trifluoromethyl)-1H-pyrazole-4-carboxylic acid] | ≤ 0.5 nM
COc1cc(C2CCN(C(=O)C3CC3)CC2)ccc1OCc1ccsc1-c1cccc(-n2ncc(C(=O)O)c2C(F)(F)F)n1 [Example 6-4, 1-(6-(3-((4-(1-(Cyclopropanecarbonyl)piperidin-4-yl)-2-methoxyphenoxy)methyl)thiophen-2-yl)pyridin-2-yl)-5-(trifluoromethyl)-1H-pyrazole-4-carboxylic acid] | 2 nM
COc1cc(OCc2ccsc2-c2cccc(-n3ncc(C(=O)O)c3C(F)(F)F)n2)ccc1C1CCN(C(=O)C2CC2)CC1 [Example 6-5, 1-(6-(3-((4-(1-(Cyclopropanecarbonyl)piperidin-4-yl)-3-methoxyphenoxy)methyl)thiophen-2-yl)pyridin-2-yl)-5-(trifluoromethyl)-1H-pyrazole-4-carboxylic acid] | 1 nM
CCc1cc(OCc2ccsc2-c2cccc(-n3ncc(C(=O)O)c3C(F)(F)F)n2)ccc1C1CCN(C(=O)C2CC2)CC1 [Example 6-6, 1-(6-(3-((4-(1-(Cyclopropanecarbonyl)piperidin-4-yl)-3-ethylphenoxy)methyl)thiophen-2-yl)pyridin-2-yl)-5-(trifluoromethyl)-1H-pyrazole-4-carboxylic acid] | ≤ 0.5 nM
Cc1cc(C2CCN(C(=O)C3CC3)CC2)ccc1OCc1cc(C2CC2)sc1-c1cccc(-n2ncc(C(=O)O)c2C(F)(F)F)n1 [Example 6-7, 1-(6-(3-((4-(1-(Cyclopropanecarbonyl)piperidin-4-yl)-2-methylphenoxy)methyl)-5-cyclopropylthiophen-2-yl)pyridin-2-yl)-5-(trifluoromethyl)-1H-pyrazole-4-carboxylic acid] | 1.4 nM
Cc1cc(C2CCN(C(=O)C3CC3)CC2)ccc1OCc1c(-c2cccc(-n3ncc(C(=O)O)c3C(F)(F)F)n2)sc(C)c1C [Example 6-8, 1-(6-(3-((4-(1-(Cyclopropanecarbonyl)piperidin-4-yl)-2-methylphenoxy)methyl)-4,5-dimethylthiophen-2-yl)pyridin-2-yl)-5-(trifluoromethyl)-1H-pyrazole-4-carboxylic acid] | ≤ 0.5 nM
CCc1c(C(=O)O)cnn1-c1cccc(-c2sccc2COc2ccc(C3CCN(C(=O)C4CC4)CC3)cc2C)n1 [Example 6-9, 1-(6-(3-((4-(1-(Cyclopropanecarbonyl)piperidin-4-yl)-2-methylphenoxy)methyl)thiophen-2-yl)pyridin-2-yl)-5-ethyl-1H-pyrazole-4-carboxylic acid] | ≤ 0.5 nM
Cc1cc(COc2ccc(C3CC(C)(C)N(C(=O)C4CC4)C(C)(C)C3)cc2C)c(-c2cccc(-n3ncc(C(=O)O)c3C(F)(F)F)n2)s1 [Example 6-10, 1-(6-(3-((4-(1-(Cyclopropanecarbonyl)-2,2,6,6-tetramethylpiperidin-4-yl)-2-methylphenoxy)methyl)-5-methylthiophen-2-yl)pyridin-2-yl)-5-(trifluoromethyl)-1H-pyrazole-4-carboxylic acid] | 1 nM
CCc1cc(OCc2cc(C)sc2-c2cccc(-n3ncc(C(=O)O)c3C(F)(F)F)n2)ccc1C1CCN(C(=O)C2CC2)CC1 [Example 6-11, 1-(6-(3-((4-(1-(Cyclopropanecarbonyl)piperidin-4-yl)-3-ethylphenoxy)methyl)-5-methylthiophen-2-yl)pyridin-2-yl)-5-(trifluoromethyl)-1H-pyrazole-4-carboxylic acid] | ≤ 0.5 nM
Cc1cc(COc2ccc(C3CCN(C(=O)C4CC4)CC3)c(C(C)C)c2)c(-c2cccc(-n3ncc(C(=O)O)c3C(F)(F)F)n2)s1 [Example 6-12, 1-(6-(3-((4-(1-(Cyclopropanecarbonyl)piperidin-4-yl)-3-isopropylphenoxy)methyl)-5-methylthiophen-2-yl)pyridin-2-yl)-5-(trifluoromethyl)-1H-pyrazole-4-carboxylic acid] | 1 nM
Cc1cc(COc2ccc(C3CCN(C(=O)C4CC4)CC3)cc2F)c(-c2cccc(-n3ncc(C(=O)O)c3C(F)(F)F)n2)s1 [Example 6-13, 1-(6-(3-((4-(1-(Cyclopropanecarbonyl)piperidin-4-yl)-2-fluorophenoxy)methyl)-5-methylthiophen-2-yl)pyridin-2-yl)-5-(trifluoromethyl)-1H-pyrazole-4-carboxylic acid] | 1 nM
Cc1cc(COc2ccc(C3CCN(C(=O)C4CC4)CC3)c(F)c2)c(-c2cccc(-n3ncc(C(=O)O)c3C(F)(F)F)n2)s1 [Example 6-14, 1-(6-(3-((4-(1-(Cyclopropanecarbonyl)piperidin-4-yl)-3-fluorophenoxy)methyl)-5-methylthiophen-2-yl)pyridin-2-yl)-5-(trifluoromethyl)-1H-pyrazole-4-carboxylic acid] | 3 nM
CCc1cc(C2CCN(C(=O)C3CC3)CC2)ccc1OCc1cc(C)sc1-c1cccc(-n2ncc(C(=O)O)c2C(F)(F)F)n1 [Example 6-15, 1-(6-(3-((4-(1-(Cyclopropanecarbonyl)piperidin-4-yl)-2-ethylphenoxy)methyl)-5-methylthiophen-2-yl)pyridin-2-yl)-5-(trifluoromethyl)-1H-pyrazole-4-carboxylic acid] | 9.5 nM
Cc1cc(COc2ccc(C3CCN(CC(F)(F)F)CC3)cc2C)c(-c2cccc(-n3ncc(C(=O)O)c3C(F)(F)F)n2)s1 [Example 6-16, 1-(6-(5-Methyl-3-((2-methyl-4-(1-(2,2,2-trifluoroethyl)piperidin-4-yl)phenoxy)methyl)thiophen-2-yl)pyridin-2-yl)-5-(trifluoromethyl)-1H-pyrazole-4-carboxylic acid] | 6.3 nM
CCc1cc(COc2ccc(C3CCN(CC(F)(F)F)CC3)cc2C)c(-c2cccc(-n3ncc(C(=O)O)c3C(F)(F)F)n2)s1 [Example 6-17, 1-(6-(5-Ethyl-3-((2-methyl-4-(1-(2,2,2-trifluoroethyl)piperidin-4-yl)phenoxy)methyl)thiophen-2-yl)pyridin-2-yl)-5-(trifluoromethyl)-1H-pyrazole-4-carboxylic acid] | 14 nM
